According to US12037339B2, “Substituted imidazoles as GLP-1 receptor agonists” (Eccogene Inc., priority 2020, dated 2024):

Target: (Homo sapiens, UniProt P43220)
Assay: h-GLP-1 activity assay (cAMP HTRF, HEK293 cells with stable expression of human GLP-1)
Format: cell-based
Settings: relative EC50, 10 nM human GLP-1 set as 100% response, 30 min at 37° C.
Protocol: Human GLP-1 agonizing activity was detected in HEK293 cells with stable expression of human GLP-1 by Cisbio cAMP Gs dynamic kit (Catalog #62AM4PEC) according to manufacturer's protocol. Briefly, cells were collected and resuspended in assay buffer containing 0.1% BSA and 0.5 mM of IBMX at concentration to 2.5×10^5 cells/mL. Two μL 5× compound solution and 8 μL cell suspension were added to each well of low-volume 384 white assay plate. After 30 min incubation at 37° C., 5 μL cAMP-d2 working solution and 5 μL anti-cAMP antibody-cryptate were added to each well, and incubate at room temperature for 1 hr. Series dilution of cAMP was used as standard. Human GLP-1 (7-37) was used as positive control and 10 nM human GLP-1 was set as 100% response. HTRF signals were read at 665 and 615 nm with EnVision plate reader and calculated cAMP concentration by interpolation to the standard curve. The EC50 value of the tested compounds was calculated by fitting the dose response curve using a 4-parameter non-linear regression routine and relative EC50 was presented in Table 29.

(Homo sapiens, UniProt P43220), sequence (P43220 24-463): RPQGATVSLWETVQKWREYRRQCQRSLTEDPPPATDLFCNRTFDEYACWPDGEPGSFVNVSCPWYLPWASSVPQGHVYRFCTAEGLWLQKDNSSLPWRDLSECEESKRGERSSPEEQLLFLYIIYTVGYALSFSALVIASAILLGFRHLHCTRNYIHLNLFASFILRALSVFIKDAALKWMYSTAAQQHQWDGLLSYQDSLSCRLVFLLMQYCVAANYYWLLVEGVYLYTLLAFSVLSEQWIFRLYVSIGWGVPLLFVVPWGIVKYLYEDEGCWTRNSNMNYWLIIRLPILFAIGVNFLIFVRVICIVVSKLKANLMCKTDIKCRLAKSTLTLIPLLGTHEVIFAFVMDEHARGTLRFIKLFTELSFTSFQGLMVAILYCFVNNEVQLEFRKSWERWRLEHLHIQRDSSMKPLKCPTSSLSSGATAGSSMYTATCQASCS

Compound | EC50 [nM]
CC1c2c(-n3ccn(-c4ccc5c(cnn5C)c4F)c3=O)c(-c3ccc(F)cc3)nn2CCN1C(=O)c1cn2cc(C3CCOCC3)ccc2c1C1(c2noc(=O)[nH]2)CC1 (racemic) [Compound 23, 3-(1-(2-(3-(3-(4-fluoro-1-methyl-1H-indazol-5-yl)-2-oxo-2,3-dihydro-1H-imidazol-1-yl)-2-(4-fluorophenyl)-4-methyl-4,5,6,7-tetrahydropyrazolo[1,5-a]pyrazine-5-carbonyl)-6-(tetrahydro-2H-pyran-4-yl)indolizin-1-yl)cyclopropyl)-1,2,4-oxadiazol-5(4H)-one] | 20 to 100
Cc1cc(-n2nc3c(c2-n2ccn(-c4ccc5c(cnn5C)c4F)c2=O)[C@H](C)N(C(=O)c2cn4cc([C@@H]5CCOC(C)(C)C5)ccc4c2[C@@]2(c4noc(=O)[nH]4)C[C@@H]2C)CC3)cc(C)c1F (single isomer, unassigned) [Compound 3] | < 20
Cc1cc(-n2nc3c(c2-n2ccn(-c4ccc5c(cnn5C)c4F)c2=O)[C@H](C)N(C(=O)c2cn4cc([C@H]5CCOC(C)(C)C5)ccc4c2[C@@]2(c4noc(=O)[nH]4)C[C@@H]2C)CC3)cc(C)c1F (single isomer, unassigned) [Compound 4] | 20 to 100
Cc1cc(-n2nc3c(c2-n2ccn(-c4ccc5c(cnn5C)c4F)c2=O)[C@H](C)N(C(=O)c2cn4cc([C@H]5CCOC(C)(C)C5)ccc4c2[C@]2(c4noc(=O)[nH]4)C[C@@H]2C)CC3)cc(C)c1F (single isomer, unassigned) [Compound 5] | < 20
Cc1cc(-n2nc3c(c2-n2ccn(-c4ccc5c(cnn5C)c4F)c2=O)[C@H](C)N(C(=O)c2cn4cc([C@@H]5CCOC(C)(C)C5)ccc4c2[C@]2(c4noc(=O)[nH]4)C[C@@H]2C)CC3)cc(C)c1F (single isomer, unassigned) [Compound 6] | 20 to 100
Cc1cc(-c2ccc3c(c2)cc(C(=O)N2CCn4nc(-c5ccc(F)cc5)c(-n5ccn(-c6ccc7c(cnn7C)c6F)c5=O)c4[C@@H]2C)n3C2(c3noc(=O)[nH]3)CC2)ccn1 (single isomer, unassigned) [Compound 7] | < 20
C[C@H]1c2c(nn(-c3ccc(C(F)(F)F)cc3)c2-n2ccn(-c3ccc4c(cnn4C)c3F)c2=O)CCN1C(=O)c1cn2cc([C@@H]3CCOC(C)(C)C3)ccc2c1C1(c2noc(=O)[nH]2)CC1 (single isomer, unassigned) [Compound 8] | < 20
Cc1cc(-n2nc3c(c2-n2ccn(-c4ccc5c(cnn5C)c4F)c2=O)[C@H](C)N(C(=O)c2cc4cc([C@H]5CCOC(C)(C)C5)ccn4c2C2(c4noc(=O)[nH]4)CC2)CC3)cc(C)c1F (single isomer, unassigned) [Compound 9] | 20 to 100
C[C@H]1c2c(nn(-c3ccc(F)cc3)c2-n2ccn(-c3ccc4c(cnn4C)c3F)c2=O)CCN1C(=O)c1cn2cc([C@@H]3CCOC(C)(C)C3)ccc2c1C1(c2noc(=O)[nH]2)CC1 (single isomer, unassigned) [Compound 11] | < 20
C[C@H]1c2c(nn(-c3ccc(F)c(Cl)c3)c2-n2ccn(-c3ccc4c(cnn4C)c3F)c2=O)CCN1C(=O)c1cn2cc([C@@H]3CCOC(C)(C)C3)ccc2c1C1(c2noc(=O)[nH]2)CC1 (single isomer, unassigned) [Compound 12] | < 20
Cc1cc(-n2nc3c(c2-n2ccn(-c4ccc5c(cnn5C)c4F)c2=O)[C@H](C)N(C(=O)c2cn4cc([C@@H]5CCOC(C)(C)C5)ccc4c2C2(c4noc(=O)[nH]4)CC2)CC3)ccc1F (single isomer, unassigned) [Compound 13] | < 20

The next lines start with the values.

EC50 [nM] | Compound
20 to 100 | Cc1cc(-n2nc3c(c2-n2ccn(-c4ccc5c(cnn5C)c4F)c2=O)[C@H](C)N(C(=O)c2cc4cc(C5CCOC(C)(C)C5)ccc4n2-c2cccc(-c4noc(=O)[nH]4)c2)CC3)cc(C)c1F (mixture of isomers) [Compound 30, 3-(3-(5-(2,2-dimethyltetrahydro-2H-pyran-4-yl)-2-((S)-3-(3-(4-fluoro-1-methyl-1H-indazol-5-yl)-2-oxo-2,3-dihydro-1H-imidazol-1-yl)-2-(4-fluoro-3,5-dimethylphenyl)-4-methyl-4,5,6,7-tetrahydro-2H-pyrazolo[4,3-c]pyridine-5-carbonyl)-1H-indol-1-yl)phenyl)-1,2,4-oxadiazol-5(4H)-one]
> 100 | Cc1cc(-n2nc3c(c2-n2ccn(-c4ccc5c(cnn5C)c4F)c2=O)CN(C(=O)c2cc4cc(C5CCOC(C)(C)C5)ccc4n2Cc2nnc(O)s2)CC3)cc(C)c1F (racemic) [Compound 35, 1-(5-(5-(2,2-dimethyltetrahydro-2H-pyran-4-yl)-1-((5-hydroxy-1,3,4-thiadiazol-2-yl)methyl)-1H-indole-2-carbonyl)-2-(4-fluoro-3,5-dimethylphenyl)-4,5,6,7-tetrahydro-2H-pyrazolo[4,3-c]pyridin-3-yl)-3-(4-fluoro-1-methyl-1H-indazol-5-yl)-1,3-dihydro-2H-imidazol-2-one]
> 100 | Cc1cc(-n2nc3c(c2-n2ccn(-c4ccc5c(cnn5C)c4F)c2=O)CN(C(=O)c2cc4cc(C5CCOC(C)(C)C5)ccc4n2Cc2cc(O)no2)CC3)cc(C)c1F (racemic) [Compound 36, 1-(5-(5-(2,2-dimethyltetrahydro-2H-pyran-4-yl)-1-((3-hydroxyisoxazol-5-yl)methyl)-1H-indole-2-carbonyl)-2-(4-fluoro-3,5-dimethylphenyl)-4,5,6,7-tetrahydro-2H-pyrazolo[4,3-c]pyridin-3-yl)-3-(4-fluoro-1-methyl-1H-indazol-5-yl)-1,3-dihydro-2H-imidazol-2-one]
> 100 | Cc1cc(-n2nc3c(c2-n2ccn(-c4ccc5c(cnn5C)c4F)c2=O)CN(C(=O)c2cc4cc(C5CCOC(C)(C)C5)ccc4n2Cc2cc(O)ns2)CC3)cc(C)c1F (racemic) [Compound 42, 1-(5-(5-(2,2-dimethyltetrahydro-2H-pyran-4-yl)-1-((3-hydroxyisothiazol-5-yl)methyl)-1H-indole-2-carbonyl)-2-(4-fluoro-3,5-dimethylphenyl)-4,5,6,7-tetrahydro-2H-pyrazolo[4,3-c]pyridin-3-yl)-3-(4-fluoro-1-methyl-1H-indazol-5-yl)-1,3-dihydro-2H-imidazol-2-one]
< 20 | Cc1cc(-n2nc3c(c2-n2ccn(-c4ccc5c(cnn5C)c4F)c2=O)[C@H](C)N(C(=O)c2cc4cc(C5CCOC(C)(C)C5)ccc4n2C2(c4nnc(O)s4)CC2)CC3)cc(C)c1F (mixture of isomers) [Compound 47, 1-((4S)-5-(5-(2,2-dimethyltetrahydro-2H-pyran-4-yl)-1-(1-(5-hydroxy-1,3,4-thiadiazol-2-yl)cyclopropyl)-1H-indole-2-carbonyl)-2-(4-fluoro-3,5-dimethylphenyl)-4-methyl-4,5,6,7-tetrahydro-2H-pyrazolo[4,3-c]pyridin-3-yl)-3-(4-fluoro-1-methyl-1H-indazol-5-yl)-1,3-dihydro-2H-imidazol-2-one]
< 20 | Cc1cc(-n2nc3c(c2-n2ccn(-c4ccc5c(cnn5C)c4F)c2=O)[C@H](C)N(C(=O)c2cc4cc(C5CCOC(C)(C)C5)ccc4n2C2(c4nc(O)ns4)CC2)CC3)cc(C)c1F (mixture of isomers) [Compound 48, 1-((4S)-5-(5-(2,2-dimethyltetrahydro-2H-pyran-4-yl)-1-(1-(3-hydroxy-1,2,4-thiadiazol-5-yl)cyclopropyl)-1H-indole-2-carbonyl)-2-(4-fluoro-3,5-dimethylphenyl)-4-methyl-4,5,6,7-tetrahydro-2H-pyrazolo[4,3-c]pyridin-3-yl)-3-(4-fluoro-1-methyl-1H-indazol-5-yl)-1,3-dihydro-2H-imidazol-2-one]
< 20 | Cc1cc(-n2nc3c(c2-n2ccn(-c4ccc5c(cnn5C)c4F)c2=O)[C@H](C)N(C(=O)c2cc4cc(C5CCOC(C)(C)C5)ccc4n2-c2ccccc2C(=O)O)CC3)cc(C)c1F (mixture of isomers) [Compound 54, 2-(5-(2,2-dimethyltetrahydro-2H-pyran-4-yl)-2-((S)-3-(3-(4-fluoro-1-methyl-1H-indazol-5-yl)-2-oxo-2,3-dihydro-1H-imidazol-1-yl)-2-(4-fluoro-3,5-dimethylphenyl)-4-methyl-4,5,6,7-tetrahydro-2H-pyrazolo[4,3-c]pyridine-5-carbonyl)-1H-indol-1-yl)benzoic acid]
> 100 | Cc1cc(-n2nc3c(c2-n2ccn(-c4ccc5c(cnn5C)c4F)c2=O)[C@H](C)N(C(=O)c2cc4cc(C5CCOC(C)(C)C5)ccc4n2C2(CNS(C)(=O)=O)CC2)CC3)cc(C)c1F (mixture of isomers) [Compound 64, N-((1-(5-(2,2-dimethyltetrahydro-2H-pyran-4-yl)-2-((S)-3-(3-(4-fluoro-1-methyl-1H-indazol-5-yl)-2-oxo-2,3-dihydro-1H-imidazol-1-yl)-2-(4-fluoro-3,5-dimethylphenyl)-4-methyl-4,5,6,7-tetrahydro-2H-pyrazolo[4,3-c]pyridine-5-carbonyl)-1H-indol-1-yl)cyclopropyl)methyl)methanesulfonamide]
< 20 | C[C@H]1c2c(nn(-c3ccc(F)c(C4CC4)c3)c2-n2ccn(-c3ccc4c(cnn4C)c3F)c2=O)CCN1C(=O)c1nn2cc(C3CCOC(C)(C)C3)cnc2c1C1(c2noc(=O)[nH]2)CC1 (mixture of isomers) [Compound 103, 3-(1-(2-((S)-2-(3-cyclopropyl-4-fluorophenyl)-3-(3-(4-fluoro-1-methyl-1H-indazol-5-yl)-2-oxo-2,3-dihydro-1H-imidazol-1-yl)-4-methyl-4,5,6,7-tetrahydro-2H-pyrazolo[4,3-c]pyridine-5-carbonyl)-6-(2,2-dimethyltetrahydro-2H-pyran-4-yl)pyrazolo[1,5-a]pyrimidin-3-yl)cyclopropyl)-1,2,4-oxadiazol-5(4H)-one]
